Experimental data published in ChEMBL document CHEMBL5506049, “Discovery of Novel Small-Molecule-Based Potential PD-L1/EGFR Dual Inhibitors with High Druggability for Glioblastoma Immunotherapy” (J Med Chem, 2024).
Active and inactive are the calls of the source. The rule behind the calls is not given here.

Legend:
U-87MG ATCC = assay: Effect on total ERK1/2 level in human U-87 MG cells at 0.25 to 2 uM incubated for 48 hrs by Western blot analysis; assay type: functional, cell-based; conditions: dose 0.25-2 µM
U-87 MG [1] = assay: Induction of cell cycle arrest in human U-87 MG cells assessed as accumulation of cells at G0/G1 phase at 1 uM incubated for 48 hrs by flow cytometry (reference value: 60.51%); assay type: functional, U-87MG ATCC
U-87 MG [2] = assay: Induction of cell cycle arrest in human U-87 MG cells assessed as accumulation of cells at G0/G1 phase at 2 uM incubated for 48 hrs by flow cytometry (reference value: 60.51%); assay type: functional, U-87MG ATCC
U-87 MG [3] = assay: Induction of cell cycle arrest in human U-87 MG cells assessed as decrease in accumulation of cells at S phase at 0.5 uM incubated for 48 hrs by flow cytometry (reference value: 30.36%); assay type: functional, U-87MG ATCC; set-up: scale not given: the % may be the effect or the level left
U-87 MG [4] = assay: Induction of cell cycle arrest in human U-87 MG cells assessed as decrease in accumulation of cells at S phase at 2 uM incubated for 48 hrs by flow cytometry (reference value: 30.36%); assay type: functional, U-87MG ATCC; set-up: scale not given: the % may be the effect or the level left
[5] = molecular target: Programmed cell death 1 ligand 1 (Mus musculus) (UniProt Q9EP73); assay: (§1) Binding affinity to recombinant mouse His-tagged PD-L1 expressed in HEK293 cells by SPR analysis
[6] = molecular target: Programmed cell death 1 ligand 1 (Mus musculus, UniProt Q9EP73); assay: as §1
U-87 MG [7] = assay: Cytotoxicity activity against human U-87 MG cells assessed as cell viability at 0.5 uM incubated for 48 hrs by CCK-8 assay relative to control; assay type: functional, U-87MG ATCC; conditions: read-out: Activity
U-87 MG [8] = assay: In vitro immunoregulatory effect in IFN-gamma stimulated human U-87 MG cells co-cultured with PHA-P stimulated with human Jurkat T cell assessed as cytotoxicity by measuring cell viability at 0.5 uM incubated for 48 hrs by CCK-8 assay relative to control; assay type: functional, U-87MG ATCC
[9] = AUC (0 to t) in Sprague-Dawley rat at 4 mg/kg, iv measured upto 72 hrs by (LC-MS)/MS analysis; assay type: ADME, organism-based; conditions: in vivo
[10] = MRT (0 to t) in Sprague-Dawley rat at 4 mg/kg, iv measured upto 72 hrs by (LC-MS)/MS analysis; assay type: ADME, organism-based; conditions: in vivo
[11] = MRT (0 to infinity) in Sprague-Dawley rat at 4 mg/kg, iv measured upto 72 hrs by (LC-MS)/MS analysis; assay type: ADME, organism-based; conditions: in vivo
[12] = Tmax in Sprague-Dawley rat at 4 mg/kg, iv measured upto 72 hrs by (LC-MS)/MS analysis; assay type: ADME, organism-based; conditions: in vivo
[13] = Volume of distribution in Sprague-Dawley rat at 4 mg/kg, iv measured upto 72 hrs by (LC-MS)/MS analysis; assay type: ADME, organism-based; conditions: in vivo
[14] = Cmax in Sprague-Dawley rat at 4 mg/kg, iv measured upto 72 hrs by (LC-MS)/MS analysis; assay type: ADME, organism-based; conditions: in vivo
[15] = AUC (0 to t) in Sprague-Dawley rat at 20 mg/kg, po measured upto 72 hrs by (LC-MS)/MS analysis; assay type: ADME, organism-based; conditions: in vivo
[16] = AUC (0 to infinity) in Sprague-Dawley rat at 20 mg/kg, po measured upto 72 hrs by (LC-MS)/MS analysis; assay type: ADME, organism-based; conditions: in vivo
[17] = MRT (0 to t) in Sprague-Dawley rat at 20 mg/kg, po measured upto 72 hrs by (LC-MS)/MS analysis; assay type: ADME, organism-based; conditions: in vivo
[18] = MRT (0 to infinity) in Sprague-Dawley rat at 20 mg/kg, po measured upto 72 hrs by (LC-MS)/MS analysis; assay type: ADME, organism-based; conditions: in vivo
[19] = Tmax in Sprague-Dawley rat at 20 mg/kg, po measured upto 72 hrs by (LC-MS)/MS analysis; assay type: ADME, organism-based; conditions: in vivo
[20] = Cmax in Sprague-Dawley rat at 20 mg/kg, po measured upto 72 hrs by (LC-MS)/MS analysis; assay type: ADME, organism-based; conditions: in vivo
[21] = Oral bioavailability in Sprague-Dawley rat at 20 mg/kg measured upto 72 hrs by (LC-MS)/MS analysis; assay type: ADME, organism-based; conditions: in vivo
[22] = Ratio of brain to plasma concentration in Sprague-Dawley rat at 5 mg/kg, iv measured after 20 mins; assay type: ADME, organism-based
[23] = Toxicity in C57BL/6 mouse xenografted with […] GL261 cells assessed as body weight loss at 50 to 100 mg/kg, IG treated for 21 days; assay type: organism-based; conditions: in vivo, po, 504 h, dose 50-100 mg/kg, time 21 day
[24] = Toxicity in C57BL/6 mouse xenografted with […] GL261 cells assessed as adverse effect at 50 to 100 mg/kg, IG treated for 21 days; assay type: organism-based; conditions: in vivo, po, 504 h, dose 50-100 mg/kg, time 21 day
[25] = In vivo antitumor activity against […] GL261 cells xenografted in C57BL/6 mouse assessed as decrease in tumor weight at 100 mg/kg, IG treated for 21 days relative to control; assay type: functional; set-up: scale not given: the % may be the effect or the level left; conditions: time 21 day
[26] = In vivo antitumor activity against […] GL261 cells xenografted in C57BL/6 mouse assessed as decrease in tumor volume at 100 mg/kg, IG treated for 21 days relative to control; assay type: functional; set-up: scale not given: the % may be the effect or the level left; conditions: time 21 day
[27] = In vivo antitumor activity against […] GL261 cells xenografted in C57BL/6 mouse assessed as tumor growth inhibition (tumor weight decrease) at 50 mg/kg, IG treated for 21 days relative to control; assay type: functional; conditions: GL261, po, 504 h, time 21 day, read-out: TGI
[28] = In vivo antitumor activity against […] GL261 cells xenografted in C57BL/6 mouse assessed as tumor growth inhibition (tumor volume decrease) at 50 mg/kg, IG treated for 21 days relative to control; assay type: functional; conditions: GL261, po, 504 h, time 21 day, read-out: TGI
[29] = In vivo antitumor activity against […] GL261 cells xenografted in C57BL/6 mouse assessed as tumor growth inhibition (tumor volume decrease) at 100 mg/kg, IG treated for 21 days relative to control; assay type: functional; conditions: GL261, po, 504 h, time 21 day, read-out: TGI
[30] = In vivo antitumor activity against […] GL261 cells xenografted in C57BL/6 mouse assessed as decrease in EGFR phosphorylation in tumor tissue at 100 mg/kg, IG treated for 21 days relative to control; assay type: functional; set-up: scale not given: the % may be the effect or the level left; conditions: time 21 day
[31] = In vivo antitumor activity against […] GL261 cells xenografted in C57BL/6 mouse assessed as decrease in PD-L1 expression in tumor tissue at 100 mg/kg, IG treated for 21 days relative to control; assay type: functional; set-up: scale not given: the % may be the effect or the level left; conditions: time 21 day
Glioblastoma cell line = assay: Antitumor immunity against glioblastoma bearing C57BL/6 mouse model assessed as tumor infiltrating lymphocytes by measuring increase in CD3+CD8+T cells at 100 mg/kg, IG (reference value: 3.44%); assay type: functional
U-87 MG [32] = assay: In vitro immunoregulatory effect in IFN-gamma stimulated human U-87 MG cells co-cultured with PHA-P stimulated with human Jurkat T cell assessed as cytotoxicity by measuring cell viability incubated for 48 hrs by CCK-8 assay relative to control; assay type: functional, cell-based; conditions: U-87MG ATCC, dose 0.0625-0.5 µM
U-87 MG [33] = assay: cells; conditions: Homo sapiens, 72 h
Description: Antiproliferative activity against human U-87 MG cells incubated for 72 hrs by MTT assay

U-251 = assay: cells; conditions: Homo sapiens, U-251, 72 h
Description: Antiproliferative activity against human U-251 cells incubated for 72 hrs by MTT assay

cells = conditions: GL261, 72 h
Description: Antiproliferative activity against human GL261 cells incubated for 72 hrs by MTT assay

Sequence of Programmed cell death 1 ligand 1 (Q9EP73 whole entry): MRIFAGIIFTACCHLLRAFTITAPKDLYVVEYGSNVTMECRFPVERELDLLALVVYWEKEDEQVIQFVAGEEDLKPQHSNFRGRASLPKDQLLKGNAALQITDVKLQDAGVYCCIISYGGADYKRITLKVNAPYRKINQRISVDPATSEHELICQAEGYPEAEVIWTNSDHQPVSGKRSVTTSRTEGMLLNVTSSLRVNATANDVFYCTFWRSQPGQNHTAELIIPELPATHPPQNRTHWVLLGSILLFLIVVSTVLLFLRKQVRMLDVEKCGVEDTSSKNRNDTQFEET
Sequence of Programmed cell death 1 ligand 1 (Mus musculus) (Q9EP73 whole entry): as above

In the case of `COc1cc2ncnc(Nc3cccc(Cl)c3F)c2cc1OCCCCNCc1c(OC)cc(OCc2cccc(-c3ccccc3)c2C)cc1OC`, the Activity (U-87MG ATCC) is reported as “inactive”, the Activity (U-87 MG [1]) is reported as 69.48% and the Activity (U-87 MG [2]) is reported as 73.98%. For the same compound, the Activity (U-87 MG [3]) was 28.36%, the Activity (U-87 MG [4]) was 16.72% and the Activity [5] was “Dose-Dependent Effect”. The Kd [6] was 520 nM, the viability at 0.5 µM (U-87 MG [7]) was 96.9% and the Activity (U-87 MG [8]) was 73.8%. It also gave an AUC(0-t) at 72 h [9] of 2830 ng·h/mL, an MRT last at 72 h [10] of 12.7 h and an MRT inf [11] of 12.5 h. It also gave a Tmax [12] of 2.4 min, a Vd [13] of 13.7 L/kg and a Cmax [14] of 326 ng/mL. It also gave an AUC(0-t) at 72 h [15] of 3150 ng·h/mL, an AUC(0-inf) [16] of 3240 ng·h/mL and an MRT last at 72 h [17] of 17.5 h. It also gave an MRT inf [18] of 17.2 h, a Tmax [19] of 3.6 h and a Cmax [20] of 255 ng/mL. For the same compound, the bioavailability [21] was 22.2%, the BPR [22] was 10% and the Activity [23] was “Non-Toxic”. For the same compound, the Activity [24] was “Non-Toxic”, the Activity [25] was 92% and the Activity [26] was 89.7%. The inhibition in vivo at 50 mg/kg [27] was 61.4%, the inhibition in vivo at 50 mg/kg [28] was 55.8% and the inhibition in vivo at 100 mg/kg [29] was 89.4%. For the same compound, the Activity [30] was roughly 50%, the Activity [31] was roughly 30% and the Activity (Glioblastoma cell line) was 14.6%. The Activity (U-87 MG [32]) was “Dose-Dependent Effect”, the IC50 (U-87 MG [33]) was 770 nM and the IC50 (U-251) was 1020 nM. It also gave an IC50 (cells) of 1190 nM.
